Results as given in US20210317140A1, “Heterocyclic Compounds and Methods of Use” (MEDIVATION TECHNOLOGIES, INC, priority 2013, published 2021).

What was measured:
PI3Kα = biological target: T1, PI3Kα (Homo sapiens, UniProt P42336); assay: PI3Kα isoform profiling (PI3Kδ protocol); assay type: biochemical; conditions: 10 dose IC50
T1 construct: purchased Reaction Biology Corporation

PI3Kβ = biological target: T2, PI3Kβ (Homo sapiens, UniProt P42338); assay: PI3Kβ isoform profiling (PI3Kδ protocol); assay type: biochemical; conditions: 0.3 μM compound
T2 construct: purchased Reaction Biology Corporation
T2 sequence (P42338 whole entry, canonical isoform): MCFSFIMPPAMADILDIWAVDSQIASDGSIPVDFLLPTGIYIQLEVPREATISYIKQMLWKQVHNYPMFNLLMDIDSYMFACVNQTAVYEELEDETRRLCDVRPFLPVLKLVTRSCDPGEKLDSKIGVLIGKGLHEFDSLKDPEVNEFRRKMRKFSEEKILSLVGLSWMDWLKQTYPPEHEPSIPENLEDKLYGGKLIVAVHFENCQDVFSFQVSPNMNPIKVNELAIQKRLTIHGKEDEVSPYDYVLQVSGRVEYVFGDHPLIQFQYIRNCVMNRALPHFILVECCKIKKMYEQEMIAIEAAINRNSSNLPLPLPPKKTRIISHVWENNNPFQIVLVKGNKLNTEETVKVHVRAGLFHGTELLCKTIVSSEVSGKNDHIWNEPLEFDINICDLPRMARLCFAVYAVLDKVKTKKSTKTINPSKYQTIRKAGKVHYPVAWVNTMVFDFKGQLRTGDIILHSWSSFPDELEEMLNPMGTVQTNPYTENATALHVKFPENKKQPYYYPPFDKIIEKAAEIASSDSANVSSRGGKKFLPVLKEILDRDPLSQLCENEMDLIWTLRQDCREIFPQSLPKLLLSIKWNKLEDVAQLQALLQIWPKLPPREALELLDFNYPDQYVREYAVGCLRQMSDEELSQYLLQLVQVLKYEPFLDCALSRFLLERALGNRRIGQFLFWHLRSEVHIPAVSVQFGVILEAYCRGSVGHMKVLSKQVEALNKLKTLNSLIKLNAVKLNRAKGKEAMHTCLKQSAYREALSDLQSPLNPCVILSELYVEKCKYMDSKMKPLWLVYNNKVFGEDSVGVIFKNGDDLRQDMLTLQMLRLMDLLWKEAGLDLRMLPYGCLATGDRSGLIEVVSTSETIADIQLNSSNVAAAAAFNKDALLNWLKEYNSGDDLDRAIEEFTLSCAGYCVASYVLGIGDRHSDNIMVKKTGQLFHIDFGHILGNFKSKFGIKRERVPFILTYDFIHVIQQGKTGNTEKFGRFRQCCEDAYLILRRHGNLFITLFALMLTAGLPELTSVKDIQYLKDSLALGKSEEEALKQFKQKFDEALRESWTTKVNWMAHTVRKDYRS
T2 sequence (P27986 whole entry partner, canonical isoform): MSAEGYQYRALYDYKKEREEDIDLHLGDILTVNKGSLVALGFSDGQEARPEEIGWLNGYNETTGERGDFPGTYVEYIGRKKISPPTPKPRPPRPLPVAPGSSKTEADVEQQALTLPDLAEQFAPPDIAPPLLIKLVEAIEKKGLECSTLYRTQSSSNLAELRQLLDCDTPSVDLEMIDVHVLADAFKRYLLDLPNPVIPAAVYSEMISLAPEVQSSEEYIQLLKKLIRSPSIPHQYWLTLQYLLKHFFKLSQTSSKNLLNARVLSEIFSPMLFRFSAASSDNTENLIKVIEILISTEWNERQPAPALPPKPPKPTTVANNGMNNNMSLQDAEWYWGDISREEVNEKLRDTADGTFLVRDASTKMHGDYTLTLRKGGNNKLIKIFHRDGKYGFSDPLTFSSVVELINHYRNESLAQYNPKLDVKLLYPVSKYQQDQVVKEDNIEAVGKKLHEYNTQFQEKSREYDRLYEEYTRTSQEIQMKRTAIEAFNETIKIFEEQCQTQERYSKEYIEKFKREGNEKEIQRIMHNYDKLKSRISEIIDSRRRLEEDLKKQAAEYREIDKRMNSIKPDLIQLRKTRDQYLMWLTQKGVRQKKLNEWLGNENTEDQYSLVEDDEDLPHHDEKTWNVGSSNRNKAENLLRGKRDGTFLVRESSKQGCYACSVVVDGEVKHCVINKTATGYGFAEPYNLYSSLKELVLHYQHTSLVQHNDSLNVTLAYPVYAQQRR
Excerpt: PI3Kδ assay: The PIP3 product is detected by displacement of biotin-PIP3 from an energy transfer complex consisting of Europium labeled anti-GST monoclonal antibody, a GST-tagged pleckstrin homology (PH) domain, biotinylated PIP3 and Streptavidin-Allophycocyanin (APC). Excitation of Europium in the complex results in an energy transfer to the APC and a fluorescent emission at 665 nm. The PIP3 product formed by PI 3-Kinase(h) activity displaces biotin-PIP3 from the complex resulting in a loss of energy transfer and thus a decrease in signal. This is a 3-step reaction: First, the kinase reaction with PIP2 substrate is carried out in the presence of ATP (10 μM), and the reaction is quenched with stop Solution, and then finally detect by adding Detection Mixture followed by incubation (10 min). Reaction procedure: 1) Prepare substrate in freshly prepared Reaction Buffer. 2) Deliver kinase into the substrate solution and gently mix. 3) Deliver compounds in 100% DMSO (1 μM) into the kinase reaction mixture by Acoustic technology (Echo550; nanoliter range), incubate for 10 min at RT. 4) Deliver ATP into the reaction mixture to initiate the reaction. 5) Incubate for 30 min at 30° C. 6) Quench the reaction with Stop Solution. 7) Add Detection Mixture, and incubate for overnight. 8) Measure HTRF: Ex=320 nm, ratio of Em=615 nm and Em=665 nm. The emission ratio is converted into μM PIP3 production based on PIP3 standard curves. The nonlinear regression to obtain the standard curve and IC50 values are performed using Graphpad Prism software. Assay Buffer: HEPES 50 mM (pH7.0), NaN3 0.02%, BSA 0.01%, Orthovanadate 0.1 mM, 1% DMSO. Detection buffer: HEPES 10 mM (pH7.0), BSA 0.02%, KF 0.16 M, EDTA 4 mM. Substrate: 10 μM PIP2 substrate (PI(4,5)P2).
Compounds of the invention were profiled in a 10 dose IC50 panel against PI3Kα, PI3Kβ, and PI3Kγ kinases, provided by Reaction Biology Corporation, applied to the PI3Kδ protocol provided in Example B1.

ITK = biological target: T3, ITK (Homo sapiens, UniProt Q08881); assay: ITK kinase profiling (BTK protocol); assay type: biochemical; conditions: 0.3 μM compound
T3 construct: purchased Reaction Biology Corporation
T3 sequence (Q08881 1-620): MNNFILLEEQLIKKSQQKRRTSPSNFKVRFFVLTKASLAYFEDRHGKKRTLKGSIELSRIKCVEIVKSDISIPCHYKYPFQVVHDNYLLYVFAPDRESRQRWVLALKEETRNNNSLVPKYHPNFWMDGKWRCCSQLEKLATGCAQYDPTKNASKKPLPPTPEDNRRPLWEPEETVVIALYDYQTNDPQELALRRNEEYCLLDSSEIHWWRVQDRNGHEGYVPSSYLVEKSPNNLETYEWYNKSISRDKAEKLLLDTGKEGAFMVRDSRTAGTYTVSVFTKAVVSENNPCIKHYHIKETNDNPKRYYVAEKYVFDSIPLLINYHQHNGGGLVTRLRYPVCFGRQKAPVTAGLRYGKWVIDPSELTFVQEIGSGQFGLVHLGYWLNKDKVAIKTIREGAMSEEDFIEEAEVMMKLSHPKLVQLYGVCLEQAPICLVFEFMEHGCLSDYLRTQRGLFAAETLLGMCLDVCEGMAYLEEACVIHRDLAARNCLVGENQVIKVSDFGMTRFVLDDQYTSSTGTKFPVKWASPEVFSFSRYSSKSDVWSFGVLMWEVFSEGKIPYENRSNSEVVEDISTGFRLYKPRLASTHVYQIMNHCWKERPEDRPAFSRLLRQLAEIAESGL

CD69+B220+ cells = assay: B cell activation assay (IgD-stimulated splenocytes, CD69+B220+ cells by FACS); assay type: cell-based; conditions: 100 nM compound, mouse splenocytes, IgD 3 μg/mL, 4 h
Summary of the method: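 Read-out is percent CD69+ among live B220+ cells by FACS after 4 h stimulation with 3 μg/mL IgD at 37 °C. Before stimulation, splenocytes from one female mouse (10^6 cells/mL) received 100 nM compound for 30 min.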

T1 sequence (P42336 whole entry, canonical isoform): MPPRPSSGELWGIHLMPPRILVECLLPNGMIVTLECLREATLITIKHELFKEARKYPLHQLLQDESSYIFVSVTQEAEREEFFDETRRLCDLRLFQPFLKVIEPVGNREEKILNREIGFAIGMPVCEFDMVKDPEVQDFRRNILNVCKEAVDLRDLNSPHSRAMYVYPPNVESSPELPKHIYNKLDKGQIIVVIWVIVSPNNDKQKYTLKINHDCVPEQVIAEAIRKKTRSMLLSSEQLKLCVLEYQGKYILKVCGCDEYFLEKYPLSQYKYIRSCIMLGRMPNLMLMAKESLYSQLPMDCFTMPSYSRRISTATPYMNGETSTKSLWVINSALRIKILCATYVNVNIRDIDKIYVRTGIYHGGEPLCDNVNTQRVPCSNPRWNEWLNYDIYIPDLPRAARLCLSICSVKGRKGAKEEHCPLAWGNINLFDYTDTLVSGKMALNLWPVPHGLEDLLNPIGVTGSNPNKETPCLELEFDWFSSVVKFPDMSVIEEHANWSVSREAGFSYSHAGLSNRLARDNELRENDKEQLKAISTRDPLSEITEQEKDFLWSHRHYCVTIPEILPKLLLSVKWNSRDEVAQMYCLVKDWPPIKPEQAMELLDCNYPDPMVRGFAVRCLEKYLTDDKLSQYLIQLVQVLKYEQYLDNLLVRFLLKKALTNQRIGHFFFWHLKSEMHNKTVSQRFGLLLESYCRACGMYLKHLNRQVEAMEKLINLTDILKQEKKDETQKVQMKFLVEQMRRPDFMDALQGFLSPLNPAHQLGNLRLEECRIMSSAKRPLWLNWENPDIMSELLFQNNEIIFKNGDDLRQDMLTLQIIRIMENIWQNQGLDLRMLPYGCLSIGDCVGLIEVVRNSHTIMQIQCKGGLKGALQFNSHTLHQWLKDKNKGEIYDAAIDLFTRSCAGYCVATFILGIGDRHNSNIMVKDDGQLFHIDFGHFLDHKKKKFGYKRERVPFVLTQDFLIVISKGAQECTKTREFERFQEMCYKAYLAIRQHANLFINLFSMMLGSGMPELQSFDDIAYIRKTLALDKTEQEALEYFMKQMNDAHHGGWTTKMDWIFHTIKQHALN
T1 sequence (P27986 whole entry partner, canonical isoform): as the sequence (P27986 whole entry partner, canonical isoform) above

`Nc1ncnc2c1c(-c1cc(O)c(Cl)c(Cl)c1)cn2C1Cc2ccccc2C1` [Compound No. 107, 5-[4-amino-7-(2,3-dihydro-1H-inden-2-yl)-7H-pyrrolo[2,3-d]pyrimidin-5-yl]-2,3-dichlorophenol] was tested, and the IC50 (PI3Kα) was 56.5 nM, the “PI3Kβ @ 0.3 μM (% Inh)” value (PI3Kβ) was 49.12 % Inh and the “ITK @ 0.3 μM (% Inh)” value (ITK) was −5.41 % Inh. For the same compound, the “CD69 @ 100 nM (% Inh)” value (CD69+B220+ cells) was −0.20 ± 16.10 (n = 3) % Inh.
